BigSolDB 2.1

CC(C)(N)C(=O)O
solubility (mole fraction) (in 2-butanone, 283.15 K): 0.000215 | solubility (mole fraction) (in 2-butanone, 288.15 K): 0.000258 | solubility (mole fraction) (in 2-butanone, 293.15 K): 0.000319 | solubility (mole fraction) (in 2-butanone, 298.15 K): 0.000415 | solubility (mole fraction) (in 2-butanone, 303.15 K): 0.000507 | solubility (mole fraction) (in 2-butanone, 308.15 K): 0.000599 | solubility (mole fraction) (in 2-butanone, 313.15 K): 0.00068 | solubility (mole fraction) (in 2-butanone, 318.15 K): 0.000803 | solubility (mole fraction) (in 2-butanone, 323.15 K): 0.000946 | solubility (mole fraction) (in DMF, 283.15 K): 5.8e-05 | solubility (mole fraction) (in DMF, 288.15 K): 0.00019 | solubility (mole fraction) (in DMF, 293.15 K): 0.000365 | solubility (mole fraction) (in DMF, 298.15 K): 0.00067 | solubility (mole fraction) (in DMF, 303.15 K): 0.00102 | solubility (mole fraction) (in DMF, 308.15 K): 0.00163 | solubility (mole fraction) (in DMF, 313.15 K): 0.00245 | solubility (mole fraction) (in DMF, 318.15 K): 0.00356 | solubility (mole fraction) (in DMF, 323.15 K): 0.00462 | solubility (mole fraction) (in acetone, 283.15 K): 6e-05 | solubility (mole fraction) (in acetone, 288.15 K): 9.7e-05 | solubility (mole fraction) (in acetone, 293.15 K): 0.00016 | solubility (mole fraction) (in acetone, 298.15 K): 0.000211 | solubility (mole fraction) (in acetone, 303.15 K): 0.000253 | solubility (mole fraction) (in acetone, 308.15 K): 0.000319 | solubility (mole fraction) (in acetone, 313.15 K): 0.000386 | solubility (mole fraction) (in acetone, 318.15 K): 0.000442 | solubility (mole fraction) (in acetone, 323.15 K): 0.000501 | solubility (mole fraction) (in acetonitrile, 283.15 K): 0.000123 | solubility (mole fraction) (in acetonitrile, 288.15 K): 0.00014 | solubility (mole fraction) (in acetonitrile, 293.15 K): 0.000163 | solubility (mole fraction) (in acetonitrile, 298.15 K): 0.000189 | solubility (mole fraction) (in acetonitrile, 303.15 K): 0.000218 | solubility (mole fraction) (in acetonitrile, 308.15 K): 0.00024 | solubility (mole fraction) (in acetonitrile, 313.15 K): 0.000277 | solubility (mole fraction) (in acetonitrile, 318.15 K): 0.000317 | solubility (mole fraction) (in acetonitrile, 323.15 K): 0.000366 | solubility (mole fraction) (in ethanol, 283.15 K): 0.000102 | solubility (mole fraction) (in ethanol, 288.15 K): 0.000183 | solubility (mole fraction) (in ethanol, 293.15 K): 0.000277 | solubility (mole fraction) (in ethanol, 298.15 K): 0.000376 | solubility (mole fraction) (in ethanol, 303.15 K): 0.000479 | solubility (mole fraction) (in ethanol, 308.15 K): 0.000579 | solubility (mole fraction) (in ethanol, 313.15 K): 0.000669 | solubility (mole fraction) (in ethanol, 318.15 K): 0.000763 | solubility (mole fraction) (in ethanol, 323.15 K): 0.000879 | solubility (mole fraction) (in ethyl acetate, 283.15 K): 0.000164 | solubility (mole fraction) (in ethyl acetate, 288.15 K): 0.000246 | solubility (mole fraction) (in ethyl acetate, 293.15 K): 0.000353 | solubility (mole fraction) (in ethyl acetate, 298.15 K): 0.000507 | solubility (mole fraction) (in ethyl acetate, 303.15 K): 0.000635 | solubility (mole fraction) (in ethyl acetate, 308.15 K): 0.000808 | solubility (mole fraction) (in ethyl acetate, 313.15 K): 0.000949 | solubility (mole fraction) (in ethyl acetate, 318.15 K): 0.00111 | solubility (mole fraction) (in ethyl acetate, 323.15 K): 0.00137 | solubility (mole fraction) (in isopropanol, 283.15 K): 0.000157 | solubility (mole fraction) (in isopropanol, 288.15 K): 0.000176 | solubility (mole fraction) (in isopropanol, 293.15 K): 0.000198 | solubility (mole fraction) (in isopropanol, 298.15 K): 0.000227 | solubility (mole fraction) (in isopropanol, 303.15 K): 0.000275 | solubility (mole fraction) (in isopropanol, 308.15 K): 0.000336 | solubility (mole fraction) (in isopropanol, 313.15 K): 0.000396 | solubility (mole fraction) (in isopropanol, 318.15 K): 0.000466 | solubility (mole fraction) (in isopropanol, 323.15 K): 0.000576 | solubility (mole fraction) (in methanol, 283.15 K): 0.000625 | solubility (mole fraction) (in methanol, 288.15 K): 0.000658 | solubility (mole fraction) (in methanol, 293.15 K): 0.000715 | solubility (mole fraction) (in methanol, 298.15 K): 0.000792 | solubility (mole fraction) (in methanol, 303.15 K): 0.000878 | solubility (mole fraction) (in methanol, 308.15 K): 0.000947 | solubility (mole fraction) (in methanol, 313.15 K): 0.00106 | solubility (mole fraction) (in methanol, 318.15 K): 0.00117 | solubility (mole fraction) (in methanol, 323.15 K): 0.0013 | solubility (mole fraction) (in methyl acetate, 283.15 K): 6.8e-05 | solubility (mole fraction) (in methyl acetate, 288.15 K): 0.000102 | solubility (mole fraction) (in methyl acetate, 293.15 K): 0.00013 | solubility (mole fraction) (in methyl acetate, 298.15 K): 0.000168 | solubility (mole fraction) (in methyl acetate, 303.15 K): 0.00021 | solubility (mole fraction) (in methyl acetate, 308.15 K): 0.000248 | solubility (mole fraction) (in methyl acetate, 313.15 K): 0.000306 | solubility (mole fraction) (in methyl acetate, 318.15 K): 0.000364 | solubility (mole fraction) (in methyl acetate, 323.15 K): 0.000436 | solubility (mole fraction) (in n-butanol, 283.15 K): 0.000158 | solubility (mole fraction) (in n-butanol, 288.15 K): 0.000219 | solubility (mole fraction) (in n-butanol, 293.15 K): 0.00027 | solubility (mole fraction) (in n-butanol, 298.15 K): 0.000334 | solubility (mole fraction) (in n-butanol, 303.15 K): 0.00043 | solubility (mole fraction) (in n-butanol, 308.15 K): 0.000518 | solubility (mole fraction) (in n-butanol, 313.15 K): 0.00065 | solubility (mole fraction) (in n-butanol, 318.15 K): 0.000783 | solubility (mole fraction) (in n-butanol, 323.15 K): 0.000963 | solubility (mole fraction) (in n-pentanol, 283.15 K): 0.0002 | solubility (mole fraction) (in n-pentanol, 288.15 K): 0.000248 | solubility (mole fraction) (in n-pentanol, 293.15 K): 0.000302 | solubility (mole fraction) (in n-pentanol, 298.15 K): 0.000369 | solubility (mole fraction) (in n-pentanol, 303.15 K): 0.000448 | solubility (mole fraction) (in n-pentanol, 308.15 K): 0.000523 | solubility (mole fraction) (in n-pentanol, 313.15 K): 0.000616 | solubility (mole fraction) (in n-pentanol, 318.15 K): 0.000721 | solubility (mole fraction) (in n-pentanol, 323.15 K): 0.000843 | solubility (mole fraction) (in n-propanol, 283.15 K): 0.00015 | solubility (mole fraction) (in n-propanol, 288.15 K): 0.000207 | solubility (mole fraction) (in n-propanol, 293.15 K): 0.000302 | solubility (mole fraction) (in n-propanol, 298.15 K): 0.000388 | solubility (mole fraction) (in n-propanol, 303.15 K): 0.000466 | solubility (mole fraction) (in n-propanol, 308.15 K): 0.000553 | solubility (mole fraction) (in n-propanol, 313.15 K): 0.000659 | solubility (mole fraction) (in n-propanol, 318.15 K): 0.000774 | solubility (mole fraction) (in n-propanol, 323.15 K): 0.000945 | solubility (mole fraction) (in water, 283.15 K): 0.0256 | solubility (mole fraction) (in water, 288.15 K): 0.0259 | solubility (mole fraction) (in water, 293.15 K): 0.0261 | solubility (mole fraction) (in water, 298.15 K): 0.0266 | solubility (mole fraction) (in water, 303.15 K): 0.0269 | solubility (mole fraction) (in water, 308.15 K): 0.0273 | solubility (mole fraction) (in water, 313.15 K): 0.0276 | solubility (mole fraction) (in water, 318.15 K): 0.0282 | solubility (mole fraction) (in water, 323.15 K): 0.0291
